Test results published in PMC11434645, “Mechanisms of NMDA Receptor Inhibition by Biguanide Compounds” (Pharmaceuticals, 2024).
Read-outs that look alike come from different tables or passages of the source.

Columns and labels:
[1] = test system: NMDA receptors; design: method as in PMID 12009768; conditions: acute phenformin treatment, cited from earlier work
[2] = test system: native NMDA receptors of rat CA1 hippocampal pyramidal neurons; assay: Whole-cell patch-clamp of NMDA-induced currents in isolated CA1 pyramidal neurons; assay type: cell-based; conditions: for inhibition of NMDA receptor steady-state currents (in words): 10 µM; for agonist dependence of action: NMDA 30 µM vs 1 mM; for agonist dependence of action / voltage dependence of inhibition (in words): cycloguanil 5 µM, proguanil 10 µM, phenformin 20 µM; for Kd: fit of voltage dependence (+30 to −120 mV) with Equation (2); for δ (fraction of membrane electric field crossed): fit with Equation (2), * = fixed value; for voltage dependence of inhibition (in words): holding potential +30 to −120 mV; for competitive or not competitive inhibition: inhibition compared at 30 µM and 1000 µM NMDA; for % of Inhibition (10 µM) −80 mV: steady-state current, 10 µM compound; for % of trapping in double-pulse protocol / tail currents on coapplication with agonist: cycloguanil 100 µM; for washout of mixture with Mg2+ compared with compound alone: 10 mM Mg2+; for Hill Coeff.: concentration–inhibition curve; for washout τ, compound alone (representative recording) / washout τ, compound + Mg (representative recording): Figure 5; for washout τ, compound + Mg (representative recording): with 10 mM Mg2+; for tail currents on coapplication with agonist: proguanil 100 µM, phenformin 300 µM; for washout time constant τ, compound alone: proguanil 30 µM, magnesium 10 mM
Method: NMDA receptors of these neurons consist mainly of GluN1, GluN2A and/or GluN2B subunits. We initially checked whether 10 µM concentrations of biguanide compounds metformin, phenformin, moroxydine, cycloguanil and proguanil would inhibit these steady-state currents. […] Hill coefficients were 1.0 ± 0.1, 1.1 ± 0.2 and 1.1 ± 0.1 for cycloguanil, proguanil and phenformin, respectively.
All experiments were conducted with approval by the Animal Care and Use Committee of the Sechenov Institute of Evolutionary Physiology and Biochemistry of the Russian Academy of Sciences (protocol 1-13/2023, 26 January 2023). Outbred male Wistar rats (13–18 days old, weighing 25–35 g) were sourced from the IEPHB facility. Maximum efforts were made to minimize the number of animals used and to reduce discomfort.
The rats were decapitated after sevoflurane anaesthetization. The brains were rapidly removed and cooled to 2–4 °C. Transverse hippocampal slices were prepared using a vibratome (Campden Instruments, Loughborough, UK), and single neurons were freed from slices by vibrodissociation. All experiments were performed at room temperature.
The whole-cell patch clamp technique was used to record membrane currents in response to applications of the agonists. Series resistance (<20 MΩ) was compensated by 70–80% and monitored during experiments. Currents were recorded using an EPC-8 amplifier (HEKA Electronics, Lambrecht, Germany), filtered at 5 kHz, sampled and stored on a personal computer. Drugs were applied using an RSC-200 (BioLogic, Seyssinet-Pariset, France) perfusion system under computer control. The extracellular solution contained (in mM) NaCl 143, KCl 5, CaCl2 2.5, D-glucose 18, and HEPES 10 (pH adjusted to 7.4 with […]). The pipette solution contained (in mM) CsF 100, CsCl 40, NaCl 5, CaCl2 0.5, EGTA 5, and HEPES 10 (pH adjusted to 7.2 with CsOH). Proguanil (HY-B0806), cycloguanil (HY-12784), phenformin hydrochloride (HY-16397A), metformin hydrochloride (HY-17471A), moroxydine hydrochloride (HY-B0420A) and ifenprodil tartrate (HY-12882A) were obtained from MedChemExpress (Monmouth Junction, NJ, USA). Other reagents were purchased from MedChemExpress (Monmouth Junction, NJ, USA), Sigma (St. Louis, MO, USA) or Tocris Bioscience (Bristol, UK).
Experiments were performed on pyramidal neurons from the CA1 area of the hippocampus. Unless otherwise specified, NMDA receptors were activated with 100 µM NMDA and 10 µM glycine. The percentage of steady-state current blockage by various drug concentrations was measured at holding voltages of either −80 or −30 mV. Transient processes lasting more than 20 ms were modeled using single or double exponential functions. In the case of double exponential fitting, the weighted time constant was employed.
The voltage dependence of the compounds’ action was analyzed using the classical Woodhull model with the voltage-independent component addition. According to the Woodhull model of an impermeable blocker, the voltage dependence of steady-state blockade is defined by Equation (1):(1) B=100/(1+Kb/C×exp〖Fzδ/RTV〗) where V is voltage; B is the level of the block (%); C is the concentration of the drug; z is the molecular charge; and R, F and T have their standard meanings. Kb is the affinity of a drug for the channel, and δ is the electrical depth of the binding site. The δ value reflects the fraction of membrane electric field that the charged blocking molecule crosses on its pathway between the external media and the binding site in the channel.
Our experimental data were not well fitted by the abovementioned equation, presumably because of the presence of a voltage-independent component. Thus, we used an Equation (2), taking it into account, assuming that the binding to the deep and superficial site is independent:(2) B=100−100/(1+C/(Kvd×exp〖Fzδ/RTV〗)+C/Kvi+(C×C)/(Kvd×exp〖Fzδ/RTV〗×Kvi)) […]

[3] = target: NMDA receptors; conditions: −30 mV in the presence of physiological magnesium concentration; read-out: IC50 of memantine; cited from earlier work
[4] = read-out: Kvd (affinity for the deep site in the channel pore)
[5] = read-out: Kvi (affinity for the superficial, voltage-independent site)
[6] = 100 µM NMDA + 10 µM glycine, −80 mV, no Mg2+
[7] = −30 mV holding voltage, 1 mM Mg2+, read-out: IC50 at −30 mV in the presence of 1 mM Mg2+
[8] = −30 mV holding voltage, no Mg2+, read-out: IC50 at −30 mV in the absence of Mg2+
[9] = −80 mV holding voltage, no Mg2+, 100 µM NMDA + 10 µM glycine, read-out: IC50, µM −80 mV
[10] = −80 mV, Mg 10 mM, Prog 30 µM, Phen 50 µM
[11] = −80 mV, Cyclog 10 µM, Ifen 10 µM

| IC50 [2, 7] | IC50 [2, 8] | IC50 [2, 9] | SMILES | mechanism of NMDA receptor inhibition [2] | inhibition of NMDA receptor steady-state currents (in words) ([2]; −80 mV) | agonist dependence of action [2] | Kd [2, 4] | Kd [2, 5] | δ (fraction of membrane electric field crossed) [2] | voltage dependence of inhibition (in words) [2] | competitive or not competitive inhibition [2] | % of Inhibition (10 µM) −80 mV [2, 6] | effect of 1 mM Mg2+ on activity at −30 mV ([2]; −30 mV holding voltage) | overshoots on washout in the presence of agonists ([2]; −80 mV) | % of trapping in double-pulse protocol ([2]; −80 mV holding voltage) | washout of mixture with Mg2+ compared with compound alone ([2]; −80 mV) | Hill Coeff. ([2]; −80 mV) | washout τ, compound alone (representative recording) [2, 10] | washout τ, compound + Mg (representative recording) ([2]; −80 mV) | tail currents on coapplication with agonist ([2]; −80 mV) | further results |
| --- | --- | --- | --- | --- | --- | --- | --- | --- | --- | --- | --- | --- | --- | --- | --- | --- | --- | --- | --- | --- | --- |
| 41 ± 6 µM | 36 ± 5 µM | 13 ± 1 µM | [H]/N=C(/N)N/C(=N/[H])NCCc1ccccc1 [Phenformin, phenformin] | allosteric inhibitors | significant inhibition | more active in conditions of higher agonist concentration | > 500 µM | 22 ± 2 µM | 0.7 * | mostly voltage-independently with a small voltage-dependent component | not competitive | 44 ± 2 (n = 5) % | not affected | did not demonstrate overshoots | < 5% | significantly faster | 1.1 ± 0.1 | 180 ms | 50 ms | tail current absence | effect on NMDA-induced whole-cell current ([1]; 1 µM): did not affect; effect on calcium responses to NMDA [1]: did not alter |
| 34 ± 10 µM | 20 ± 5 µM | 3.4 ± 0.6 µM | CC1(C)N=C(N)N=C(N)N1c1ccc(Cl)cc1 [Cycloguanil, cycloguanil] | voltage-dependent trapping channel blocker | significant inhibition | agonist-independent | 55 ± 11 µM | > 500 µM | 0.7 ± 0.1 | clearly voltage-dependent | not competitive | 76 ± 5 (n = 4) % | attenuated | did not demonstrate overshoots | 68 ± 11% | significantly faster | 1.0 ± 0.1 |  | 60 ms | tail current absence | washout τ, compound alone (representative recording) [2, 11]: 3000 ms |
|  |  |  | [Mg+2] [magnesium] |  |  |  |  |  |  |  |  |  |  |  |  |  |  | 30 ms |  |  | washout time constant τ, compound alone ([2]; −80 mV, mean ± SD): 30 ± 16 ms |
|  |  |  | CN(C)C(=N)N=C(N)N [Metformin, metformin] |  | practically ineffective |  |  |  |  |  |  | 6 ± 5 (n = 4) % |  |  |  |  |  |  |  |  |  |
|  |  |  | N=C(N)/N=C(\N)N1CCOCC1 [Moroxydine, moroxydine] |  | practically ineffective |  |  |  |  |  |  | 5 ± 4 (n = 4) % |  |  |  |  |  |  |  |  |  |
|  |  |  | CC(C(O)c1ccc(O)cc1)N1CCC(Cc2ccccc2)CC1 (stereo not drawn) [ifenprodil] |  |  |  |  |  |  |  |  |  |  |  |  | does not affect |  |  | 28000 ms |  | washout τ, compound alone (representative recording) [2, 11]: 28000 ms |
| 17 ± 3 µM | 13 ± 3 µM | 9 ± 2.2 µM | [H]/N=C(\N/C(=N/[H])Nc1ccc(Cl)cc1)NC(C)C [Proguanil, proguanil] | allosteric inhibitors | significant inhibition | more active in conditions of higher agonist concentration | > 500 µM | 14 ± 1 µM | 0.7 * | mostly voltage-independently with a small voltage-dependent component | not competitive | 51 ± 6 (n = 5) % | not affected | did not demonstrate overshoots | < 5% | significantly faster | 1.1 ± 0.2 | 550 ms | 75 ms | tail current absence | activity lower than that of memantine (fold) ([2]; −30 mV, 1 mM Mg2+, compared with memantine IC50 of ref 40): approximately three-fold; washout time constant τ, mixture with Mg2+ ([2]; −80 mV, mean ± SD, proguanil 30 µM + 10 mM Mg2+): 76 ± 32 ms; washout time constant τ, compound alone ([2]; −80 mV, mean ± SD): 470 ± 120 ms |
|  |  |  | CC12CC3CC(C)(C1)CC(N)(C3)C2 [memantine] |  |  |  |  |  |  |  |  |  |  |  |  |  |  |  |  |  | IC50 [3]: 6.4 ± 0.5 µM |
